Legend:
[1] = tested on: carrageenan edema; assay: carrageenan edema inhibiting effect of betamethasone valerate ointments; assay type: in vivo, rat; conditions: Table 5, betamethasone valerate ointment with penetration enhancer
Protocol: An ointment was prepared from 0.15 part by weight of betamethasone valerate, 9.85 parts by weight of compound (168) and 90 parts by weight of the hydrophilic ointment.
In accordance with the method of R. Passarella et al. [Argneim. Forsch 30, (I), Nr. 4, 647-651 (1980)], the carrageenan edema inhibiting effect of the above ointment was examined. Specifically, 0.1 ml of a 1% carrageenan suspension in 0.9% NaCl solution was injected into the tip of the right leg of a rat (body weight 150-175 g). The foot volume was measured immediately after administration of carrageenan and 3, 5, and 6 hours after the administration by means of a mercury displacement device. 0.5, 1 and 2 hours after the administration of carrageenan, 100 mg of the ointment was well […] into each of the sites which underwent inflammation.
Various ointments were prepared from 0.15 part by weight of betamethasone valerate, […] of the various penetration enhancers shown in Table 5, and 85 parts by weight of the hydrophilic ointment, and tested in the same way as in Example 23.

[2] = tested on: eye (cornea, iris, conjunctiva); assay: primary eye irritation (Draize) in rabbits; assay type: in vivo, white native male rabbits; conditions: for Primary irritation score, Conjunctiva / Primary irritation score, Cornea / Primary irritation score, Iris / Primary irritation score, Total: average of three rabbits
Protocol: enhancers of this invention shown in Table 17 was applied dropwise to one eye of white native male rabbits (body weight 2.0 to 3.0 kg; 3 per group) which, it had been ascertained, were free from any trouble at the cornea, iris and conjunctiva. Nothing was applied to the other eye. Thus, irritation of the absorption aid to the mucous membrane of the eyes were examined, and scores were calculated in accordance with the Draize's eye irritation evaluating method [Association of Foods, "Drugs and Cosmetics" (1957)].
As a control, sodium laurylsulfate, a kind of surface-active agent, was evaluated in the same way, and the results are also shown in Table 17.

CCCCCCCC=CCCCCCCCCOCC(COC(=O)[C@@H]1CCC(=O)N1)OCCCCCCCCC=CCCCCCCC (stereo partly shown) [Compound (142), 2,3-di(9-heptadecenyloxy)-1-pyroglutamyloxypropane]
Percentage inhibition vs. control ([1]; 3 hrs): 16.5%
Percentage inhibition vs. control ([1]; 5 hrs): 34.6%
Percentage inhibition vs. control ([1]; 6 hrs): 34.0%

CCCCCCCCCCCCOS(=O)(=O)[O-].[Na+] [Sodium Laurylsulfate, sodium laurylsulfate, reference compound]
Primary irritation score, Conjunctiva ([2]; 0.1% soln, 1 hour): 4.0
Primary irritation score, Cornea ([2]; 0.1% soln, 1 hour): 0
Primary irritation score, Iris ([2]; 0.1% soln, 1 hour): 0
Primary irritation score, Total ([2]; 0.1% soln, 1 hour): 4.0
Primary irritation score, Conjunctiva ([2]; 0.1% soln, 3 hours): 4.0
Primary irritation score, Cornea ([2]; 0.1% soln, 3 hours): 0
Primary irritation score, Iris ([2]; 0.1% soln, 3 hours): 0
Primary irritation score, Total ([2]; 0.1% soln, 3 hours): 4.0
Primary irritation score, Conjunctiva ([2]; 0.1% soln, 6 hours): 0
Primary irritation score, Cornea ([2]; 0.1% soln, 6 hours): 0
Primary irritation score, Iris ([2]; 0.1% soln, 6 hours): 0
Primary irritation score, Total ([2]; 0.1% soln, 6 hours): 0
Primary irritation score, Conjunctiva ([2]; 0.1% soln, 24 hours): 0
Primary irritation score, Cornea ([2]; 0.1% soln, 24 hours): 0
Primary irritation score, Iris ([2]; 0.1% soln, 24 hours): 0
Primary irritation score, Total ([2]; 0.1% soln, 24 hours): 0
Primary irritation score, Conjunctiva ([2]; 0.1% soln, 48 hours): 0
Primary irritation score, Cornea ([2]; 0.1% soln, 48 hours): 0
Primary irritation score, Iris ([2]; 0.1% soln, 48 hours): 0
Primary irritation score, Total ([2]; 0.1% soln, 48 hours): 0
Primary irritation score, Conjunctiva ([2]; 0.1% soln, 72 hours): 0
Primary irritation score, Cornea ([2]; 0.1% soln, 72 hours): 0
Primary irritation score, Iris ([2]; 0.1% soln, 72 hours): 0
Primary irritation score, Total ([2]; 0.1% soln, 72 hours): 0
Primary irritation score, Conjunctiva ([2]; 0.1% soln, 96 hours): 0
Primary irritation score, Cornea ([2]; 0.1% soln, 96 hours): 0
Primary irritation score, Iris ([2]; 0.1% soln, 96 hours): 0
Primary irritation score, Total ([2]; 0.1% soln, 96 hours): 0
Primary irritation score, Conjunctiva ([2]; 0.1% soln, 168 hours): 0
Primary irritation score, Cornea ([2]; 0.1% soln, 168 hours): 0
Primary irritation score, Iris ([2]; 0.1% soln, 168 hours): 0
Primary irritation score, Total ([2]; 0.1% soln, 168 hours): 0
Primary irritation score, Conjunctiva ([2]; 2.4% soln, 1 hour): 13.3
Primary irritation score, Cornea ([2]; 2.4% soln, 1 hour): 0
Primary irritation score, Iris ([2]; 2.4% soln, 1 hour): 5.0
Primary irritation score, Total ([2]; 2.4% soln, 1 hour): 18.3
Primary irritation score, Conjunctiva ([2]; 2.4% soln, 3 hours): 12.7
Primary irritation score, Cornea ([2]; 2.4% soln, 3 hours): 0
Primary irritation score, Iris ([2]; 2.4% soln, 3 hours): 0
Primary irritation score, Total ([2]; 2.4% soln, 3 hours): 12.7
Primary irritation score, Conjunctiva ([2]; 2.4% soln, 6 hours): 11.3
Primary irritation score, Cornea ([2]; 2.4% soln, 6 hours): 0
Primary irritation score, Iris ([2]; 2.4% soln, 6 hours): 0
Primary irritation score, Total ([2]; 2.4% soln, 6 hours): 11.3
Primary irritation score, Conjunctiva ([2]; 2.4% soln, 24 hours): 8.0
Primary irritation score, Cornea ([2]; 2.4% soln, 24 hours): 0
Primary irritation score, Iris ([2]; 2.4% soln, 24 hours): 0
Primary irritation score, Total ([2]; 2.4% soln, 24 hours): 8.0
Primary irritation score, Conjunctiva ([2]; 2.4% soln, 48 hours): 4.0
Primary irritation score, Cornea ([2]; 2.4% soln, 48 hours): 0
Primary irritation score, Iris ([2]; 2.4% soln, 48 hours): 0
Primary irritation score, Total ([2]; 2.4% soln, 48 hours): 4.0
Primary irritation score, Conjunctiva ([2]; 2.4% soln, 72 hours): 2.7
Primary irritation score, Cornea ([2]; 2.4% soln, 72 hours): 0
Primary irritation score, Iris ([2]; 2.4% soln, 72 hours): 0
Primary irritation score, Total ([2]; 2.4% soln, 72 hours): 2.7
Primary irritation score, Conjunctiva ([2]; 2.4% soln, 96 hours): 2.0
Primary irritation score, Cornea ([2]; 2.4% soln, 96 hours): 0
Primary irritation score, Iris ([2]; 2.4% soln, 96 hours): 0
Primary irritation score, Total ([2]; 2.4% soln, 96 hours): 2.0
Primary irritation score, Conjunctiva ([2]; 2.4% soln, 168 hours): 0.7
Primary irritation score, Cornea ([2]; 2.4% soln, 168 hours): 0
Primary irritation score, Iris ([2]; 2.4% soln, 168 hours): 0
Primary irritation score, Total ([2]; 2.4% soln, 168 hours): 0.7
eye irritation (in words) ([2]; rabbit, in vivo): fairly strong irritation

CC1(C)OCC(COC(=O)C2CCC(=O)N2)O1 (stereo not shown) [Compound (202), 2,3-dioxo-(dimethyl)methylene-1-pyroglutamyloxypropane]
Percentage inhibition vs. control ([1]; 3 hrs): 17.7%
Percentage inhibition vs. control ([1]; 5 hrs): 39.6%
Percentage inhibition vs. control ([1]; 6 hrs): 36.1%

CCCCCCCCCCC=CCCCCCCCCCC(=O)OCC(O)COC(=O)[C@@H]1CCC(=O)N1 (stereo partly shown) [Compound (192), 3-(11-docosenoyloxy)-2-hydroxy-1-pyroglutamyloxypropane]
Percentage inhibition vs. control ([1]; 3 hrs): 19.5%
Percentage inhibition vs. control ([1]; 5 hrs): 36.7%
Percentage inhibition vs. control ([1]; 6 hrs): 30.8%

CCCCCCCC/C=C\CCCCCCCC(=O)OCC(COC(=O)C1CCC(=O)N1)OC(=O)CCCCCCC/C=C\CCCCCCCC (stereo not shown) [Compound (170), 2,3,-dioleoyloxy-1-pyroglutamyloxypropane]
Percentage inhibition vs. control ([1]; 3 hrs): 17.9%
Percentage inhibition vs. control ([1]; 5 hrs): 33.4%
Percentage inhibition vs. control ([1]; 6 hrs): 36.2%

CCCCCCCCOCC(COC(=O)[C@@H]1CCC(=O)N1)OCCCCCCCC (stereo partly shown) [Compound (122), 2,3-dioctyloxy-1-pyroglutamyloxypropane]
Percentage inhibition vs. control ([1]; 3 hrs): 20.2%
Percentage inhibition vs. control ([1]; 5 hrs): 36.5%
Percentage inhibition vs. control ([1]; 6 hrs): 38.3%

CCCCCCCCC1(CCCCCCCC)OCC(COC(=O)C2CCC(=O)N2)O1 (stereo not shown) [Compound (214), 2,3-dioxo-(dioctyl)methylene-1-pyroglutamyloxypropane]
Percentage inhibition vs. control ([1]; 3 hrs): 18.2%
Percentage inhibition vs. control ([1]; 5 hrs): 35.3%
Percentage inhibition vs. control ([1]; 6 hrs): 35.5%
Primary irritation score, Conjunctiva ([2]; 2.4% soln, 1 hour): 2.0
Primary irritation score, Cornea ([2]; 2.4% soln, 1 hour): 0
Primary irritation score, Iris ([2]; 2.4% soln, 1 hour): 0
Primary irritation score, Total ([2]; 2.4% soln, 1 hour): 2.0
Primary irritation score, Conjunctiva ([2]; 2.4% soln, 3 hours): 2.0
Primary irritation score, Cornea ([2]; 2.4% soln, 3 hours): 0
Primary irritation score, Iris ([2]; 2.4% soln, 3 hours): 0
Primary irritation score, Total ([2]; 2.4% soln, 3 hours): 2.0
Primary irritation score, Conjunctiva ([2]; 2.4% soln, 6 hours): 2.0
Primary irritation score, Cornea ([2]; 2.4% soln, 6 hours): 0
Primary irritation score, Iris ([2]; 2.4% soln, 6 hours): 0
Primary irritation score, Total ([2]; 2.4% soln, 6 hours): 2.0
Primary irritation score, Conjunctiva ([2]; 2.4% soln, 24 hours): 0
Primary irritation score, Cornea ([2]; 2.4% soln, 24 hours): 0
Primary irritation score, Iris ([2]; 2.4% soln, 24 hours): 0
Primary irritation score, Total ([2]; 2.4% soln, 24 hours): 0
Primary irritation score, Conjunctiva ([2]; 2.4% soln, 48 hours): 0
Primary irritation score, Cornea ([2]; 2.4% soln, 48 hours): 0
Primary irritation score, Iris ([2]; 2.4% soln, 48 hours): 0
Primary irritation score, Total ([2]; 2.4% soln, 48 hours): 0
Primary irritation score, Conjunctiva ([2]; 2.4% soln, 72 hours): 0
Primary irritation score, Cornea ([2]; 2.4% soln, 72 hours): 0
Primary irritation score, Iris ([2]; 2.4% soln, 72 hours): 0
Primary irritation score, Total ([2]; 2.4% soln, 72 hours): 0
Primary irritation score, Conjunctiva ([2]; 2.4% soln, 96 hours): 0
Primary irritation score, Cornea ([2]; 2.4% soln, 96 hours): 0
Primary irritation score, Iris ([2]; 2.4% soln, 96 hours): 0
Primary irritation score, Total ([2]; 2.4% soln, 96 hours): 0
Primary irritation score, Conjunctiva ([2]; 2.4% soln, 168 hours): 0
Primary irritation score, Cornea ([2]; 2.4% soln, 168 hours): 0
Primary irritation score, Iris ([2]; 2.4% soln, 168 hours): 0
Primary irritation score, Total ([2]; 2.4% soln, 168 hours): 0

CCCCCCCCCCCCCCCCCCOCC(O)COC(=O)[C@@H]1CCC(=O)N1 (stereo partly shown) [Compound (112), 2-hydroxy-3-octadecyloxy-1-pyroglutamyloxypropane]
Percentage inhibition vs. control ([1]; 3 hrs): 17.8%
Percentage inhibition vs. control ([1]; 5 hrs): 32.2%
Percentage inhibition vs. control ([1]; 6 hrs): 33.0%

CCC=CC(=O)OCC(O)COC(=O)[C@@H]1CCC(=O)N1 (stereo partly shown) [Compound (184), 2-hydroxy-3(2-pentenoyloxy)-1-pyroglutamyloxypropane]
Percentage inhibition vs. control ([1]; 3 hrs): 19.0%
Percentage inhibition vs. control ([1]; 5 hrs): 35.3%
Percentage inhibition vs. control ([1]; 6 hrs): 35.5%

CCCCCCCCCCCCCCCCCCOCC(COC(=O)[C@@H]1CCC(=O)N1)OCCCCCCCCCCCCCCCCCC (stereo partly shown) [Compound (124), 2,3-dioctadecyloxy-1-pyroglutamyloxypropane]
Percentage inhibition vs. control ([1]; 3 hrs): 19.5%
Percentage inhibition vs. control ([1]; 5 hrs): 37.8%
Percentage inhibition vs. control ([1]; 6 hrs): 36.6%

CCCCCCCC(=O)OCC(O)COC(=O)[C@@H]1CCC(=O)N1 (stereo partly shown) [Compound (160), 2-hydroxy-3-octanoyloxy-1-pyroglutamyloxypropane]
Percentage inhibition vs. control ([1]; 3 hrs): 17.7%
Percentage inhibition vs. control ([1]; 5 hrs): 30.8%
Percentage inhibition vs. control ([1]; 6 hrs): 29.9%

CCCCCCCCCCCCCCCC1OCC(COC(=O)C2CCC(=O)N2)O1 (stereo not shown) [Compound (220), 2,3-dioxo-(pentadecyl)methylene-1-pyroglutamyloxypropane]
Percentage inhibition vs. control ([1]; 3 hrs): 16.6%
Percentage inhibition vs. control ([1]; 5 hrs): 29.7%
Percentage inhibition vs. control ([1]; 6 hrs): 29.8%

CCCCCCOCC(O)COC(=O)[C@@H]1CCC(=O)N1 (stereo partly shown) [Compound (104), 3-hexyloxy-2-hydroxy-1-pyroglutamyloxypropane]
Percentage inhibition vs. control ([1]; 3 hrs): 18.3%
Percentage inhibition vs. control ([1]; 5 hrs): 35.3%
Percentage inhibition vs. control ([1]; 6 hrs): 37.0%

CCCCC(=O)OCC(COC(=O)[C@@H]1CCC(=O)N1)OC(=O)CCCC (stereo partly shown) [Compound (158), 2,3-divaleryloxy-1-pyroglutamyloxypropane]
Percentage inhibition vs. control ([1]; 3 hrs): 18.0%
Percentage inhibition vs. control ([1]; 5 hrs): 36.0%
Percentage inhibition vs. control ([1]; 6 hrs): 36.1%

CCCCC(=O)OCC(O)COC(=O)[C@@H]1CCC(=O)N1 (stereo partly shown) [Compound (156), 2-hydroxy-3-valeryloxy-1-pyroglutamyloxypropane]
Percentage inhibition vs. control ([1]; 3 hrs): 18.6%
Percentage inhibition vs. control ([1]; 5 hrs): 35.1%
Percentage inhibition vs. control ([1]; 6 hrs): 34.3%

— patent US4746675A, “External pharmaceutical composition” (Teijin Limited, priority 1983, dated 1988)
